Molecules are shown by their SMILES.

Experimental findings from paper PMC3806745, “Selective Inhibition of Matrix Metalloproteinase-9 Attenuates Secondary Damage Resulting from Severe Traumatic Brain Injury” (PLoS ONE, 2013) are described below.

Format in all cases: in vivo
In one assay the target is MMP-9 (Mus musculus, UniProt P41245). As to the kind of experiment: Gelatin zymography of cortical tissue after TBI. The settings on record: TBI mice, 25 mg/kg/day i.p. for 7 days, 7 days post-trauma, vs vehicle. On the procedure: (§1) All animal procedures were performed under the compliance with protocol approval by the University of Missouri Animal Care and Use Committee, which is in accordance with the National Institutes of Health Guide for the Care and Use of Laboratory Animals. The TBI procedure employed an EM impactor for CCI and was conducted as previously described. A total of 86 mice were used in this study. Briefly, 8–10 week-old adult male C57BL/6J mice (The Jackson Laboratory, Bar Harbor, ME) weighing 20–25 g were anesthetized with 2.0% gaseous isoflurane in a nitrogen/oxygen mixture inside a sealed anesthesia chamber. Each mouse was then stably placed on a Kopf stereotaxic apparatus (David Kopf Instruments, Tujunga, CA). Body temperature was monitored with a rectal thermistor probe (TH-10Kmp, Cell MicroControls, Norfolk, VA), and maintained at a constant 37°C on a silicon heating pad (HS-3×2.5 Heater, Cell MicroControls, Norfolk, VA). […]
MMP-9, sequence (P41245 108-730): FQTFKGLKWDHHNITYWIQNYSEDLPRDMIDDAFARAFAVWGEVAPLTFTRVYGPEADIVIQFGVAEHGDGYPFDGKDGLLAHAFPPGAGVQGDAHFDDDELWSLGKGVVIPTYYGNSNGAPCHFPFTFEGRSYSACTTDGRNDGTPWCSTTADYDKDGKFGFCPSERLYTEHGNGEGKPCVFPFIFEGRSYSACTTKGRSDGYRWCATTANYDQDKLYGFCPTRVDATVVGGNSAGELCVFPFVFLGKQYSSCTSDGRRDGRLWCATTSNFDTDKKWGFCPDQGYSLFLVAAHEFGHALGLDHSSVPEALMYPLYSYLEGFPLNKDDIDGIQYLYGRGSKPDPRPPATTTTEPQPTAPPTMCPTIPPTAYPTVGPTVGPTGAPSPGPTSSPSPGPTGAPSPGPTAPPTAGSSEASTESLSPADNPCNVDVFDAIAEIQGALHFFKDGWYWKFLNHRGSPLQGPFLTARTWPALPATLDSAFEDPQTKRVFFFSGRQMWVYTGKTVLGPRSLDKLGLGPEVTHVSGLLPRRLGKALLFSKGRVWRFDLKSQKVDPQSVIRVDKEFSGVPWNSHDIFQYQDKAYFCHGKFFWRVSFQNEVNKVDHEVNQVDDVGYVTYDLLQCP
Gelatinase activity in brain homogenates was determined by gelatin zymography as described previously, [16]. […] Bound material was released from the beads using 10% DMSO in TBS, and samples were analyzed by electrophoresis in a 10% SDS-PAGE gel containing 0.1% gelatin under non-reducing conditions, followed by incubation overnight at 37°C in 50 mM Tris buffer, pH 8, with 5 mM CaCl2, 200 mM NaCl, and 0.02% Brij 35. […]

Assay [1] deals with TBI mouse model (EM impactor CCI). Kind of assay: Neurons with dendrites, NeuN/MAP2 immunohistochemistry after TBI. As to conditions: TBI mice, 25 mg/kg i.p. for 7 days; 7 days after TBI. As for the experimental part:
as §1
(§2) Fluorescence immunohistochemistry was carried out as described, [16], [19]. For each brain analyzed, coronal sections were chosen near the center of the craniotomy (Bregma −1.50 mm) and adjacent to a section stained with cresyl violet for comparison. […]

Assay [2] shares this test system. As to the kind of experiment: Microglial activation and astrogliosis, CD11b/GFAP immunofluorescence after TBI. As to conditions: TBI mice, SB-3CT treatment for 7 days; 7 days post-trauma. As for the experimental part: as §1, §2

`O=S(=O)(CC1CS1)c1ccc(Oc2ccccc2)cc1` (centres unmarked) [SB-3CT]: the “Levels of proMMP-9 and active MMP-9 in lesioned cortex (gelatin zymography, densitometry)” value at MMP-9 is reported as “attenuated”. In assay [1], the “Surviving neurons with dendrites, contralateral cortex” value was 7.53±0.59% and the “Surviving neurons with dendrites, lesioned cortex” value was 2.86±0.63%. Besides, in assay [2], the “Immunoreactivity of GFAP-stained astrocytes” value is on record as “partially attenuated” and the “Numbers of CD11b-positive microglial cells in lesioned cortex vs vehicle” value is recorded as “significantly reduced”.
